Measurements from patent publication US20240287046A1, “COMPOUNDS AND RADIOLIGANDS FOR TARGETING NEUROTENSIN RECEPTOR AND USES THEREOF” (Full-Life Technologies HK Limited, priority 2022, published 2024).

Key:
human NTSR-1 [1] = molecular target: T1, human NTSR-1 (Homo sapiens (Human), UniProt P30989); experiment: FLIPR assay, inhibition of Neurotensin-induced intracellular-calcium mobilization; type: cell-based; conditions: for IC50 compared to comparator compound C-2: FLIPR assay; for IC50: HEK293 cells stably expressing human NTSR-1, mean, read-out: IC50 (nM) in FLIPR Assays
T1 sequence (P30989 whole entry): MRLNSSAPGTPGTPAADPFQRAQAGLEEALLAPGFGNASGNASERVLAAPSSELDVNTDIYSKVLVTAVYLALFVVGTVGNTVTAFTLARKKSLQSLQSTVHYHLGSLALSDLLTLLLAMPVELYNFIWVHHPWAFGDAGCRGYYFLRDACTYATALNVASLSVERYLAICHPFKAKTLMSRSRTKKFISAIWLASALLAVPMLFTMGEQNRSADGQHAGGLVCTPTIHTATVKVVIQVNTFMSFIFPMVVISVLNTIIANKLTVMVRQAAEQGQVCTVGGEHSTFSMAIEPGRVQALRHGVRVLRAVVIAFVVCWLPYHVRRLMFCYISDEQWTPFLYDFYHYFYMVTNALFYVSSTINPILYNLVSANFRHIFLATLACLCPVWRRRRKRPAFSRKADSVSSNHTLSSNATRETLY
Method: Binding affinities of the representative compounds were also evaluated by FLIPR assay. Neurotensin receptor 1 belongs to the G-protein coupled receptors (GPCR) family. Activation of NTSR-1 by its ligand Neurotensin can induce intracellular-calcium mobilization. In FLIPR assay, the test compound and Neurotensin were incubated together with cells expressing NTSR-1 to measure inhibition of the intracellular-calcium mobilization by the test compound so that to evaluate its binding affinity.
Briefly, HEK293 cells stably expressing human NTSR-1 were plated in 384-well plates. 20 ul cell suspension at a concentration of 10×10^5 per ml was seeded in each well and incubated at 37° C. 5% CO2 overnight. Then the cells in each well were mixed with 20 ul probenecid assay buffer, 20 ul 8 uM Fluo-4 Direct™ Loading Buffer, 6×EC80 of Neurotensin and 10 μl of the diluted test compound, and incubated at 37° C. 5% CO2 for 50 min followed by incubation at room temperature for 10 min. The plate was then subject to FLIPR analysis.

human NTSR-1 [2] = molecular target: T1, human NTSR-1; experiment: radioligand competitive binding assay using ^177Lu labeled C-1 as reference radioligand; conditions: for Relative Binding Affinity: Mean IC50 of C-1/Mean IC50 of the test compound; for IC50: Nonlin fit, single assay, HT-29 cells
Method: The binding affinities of test compounds were determined by a radioligand competitive binding assay using ^177Lu labeled C-1 as the reference radioligand.
Briefly, 100 μL HT-29 cells expressing human NTSR-1 at a density of 1˜2×10^6 cells/mL were mixed with binding buffer (RPMI-1640 medium supplemented with 0.25% bovine serum albumin) in each well of the 96-well filter plate (Millipore). Then the cells in each well were incubated with ^177Lu—C-1 (0.55 μCi/well) and the test compound under 37° C. for 1 hr (n=3). After incubation, unbound ^177Lu—C-1 and the test compound in each well was removed by filtration using a Multiscreen vacuum manifold (Millipore) and the cells were further rinsed with the binding buffer for 5 times. The cells from each well were then collected and radioactivity of the cells in each well was individually measured by y counter (2480 WIZARD2, PerkinElmer). The best-fit IC50 value of test compounds (inhibitory concentration when 50% of the bound ^177Lu—C-1 on cells were displaced) were calculated by fitting the data with nonlinear regression using GraphPad Prism 8.0.1.

[3] = test system: ASPC-1 tumor-bearing mice; experiment: Biodistribution of radionuclide labeled complexes in ASPC-1 tumor-bearing mice; type: in vivo, BALB/c nude mice; conditions: ^177Lu-labeled complex
Method: The BALB/c nude mice (Charles River, Beijing) were utilized to establish the xenografted model for biodistribution study. All animal care and experimental procedure were performed by following the animal protocols approved by the ethics committee of China Institute of Radiation Protection.
Briefly, each mouse was inoculated with approximately 4×10^6 ASPC-1 cells (human pancreatic cancer cell line) or HT-29 cells (human colorectal adenocarcinoma cell line) expressing human NTSR-1 by subcutaneous injection at rear flank. After inoculation, the xenografted tumors were allowed to grow for ˜2-4 weeks till the tumor weight reached to about 0.05 to 0.50 g (0.20 g in average).
Biodistribution studies were performed by administrating the radionuclide labeled test compound at a dose of ˜30-50 μCi (100 μL in 0.9% NaCl, ˜1.11-1.85 MBq, with specific activity 30-250 μCi/nmol) to each animal through tail vein injection.
At different time points after the administration, the mice treated with each compound were euthanized. The tissues and organs of the animals in each group were collected, excised, weighed, and analyzed in a PerkinElmer 2480 WIZARD2γ counter, and the percent injected dose (% ID) and % ID/g of each organ or tissue were calculated.

[4] = read-out: LogIC50 Mean (converted)

IC50 compared to comparator compound C-2 (human NTSR-1 [1])	IC50 (human NTSR-1 [1]) [nM]	Relative Binding Affinity (human NTSR-1 [2])	AUC (0-72 h) ratio Tumor/Blood [3]	AUC (0-72 h) ratio Tumor/Kidney [3]	AUC (0-72 h) ratio Tumor/Liver [3]	AUC (0-72 h) ratio Tumor/Lung [3]	IC50 (human NTSR-1 [2]; read-out: IC50 (nM) Mean) [nM]	IC50 (human NTSR-1 [2]; [4]) [nM]	binding affinity vs 3BP-227 (C-2) on removal of the tertiary amine motif in the linker (human NTSR-1 [2])	binding affinity compared to comparator compound C-1 or C-3 (human NTSR-1 [2]; single radioligand competitive binding assay)	SMILES
lower IC50	16.2	3.1									COc1cccc(OC)c1-c1cc(C(=O)NC2(C(=O)O)C3CC4CC(C3)CC2C4)nn1-c1ccc(N(CCCN(C)C)C(=O)COCCOCCNC(=O)CN2CCN(CC(=O)O)CCN(CC(=O)O)CCN(CC(=O)O)CC2)cc1C(C)C (stereo not shown) [Compound I-6]
			12.5	10.4	10.6	39.4	0.559	0.558			COc1cccc(OC)c1-c1cc(C(=O)NC2(C(=O)O)C3CC4CC(C3)CC2C4)nn1-c1ccc(NCCCN(C)CCCNC(=O)CN2CCN(CC(=O)O)CCN(CC(=O)O)CCN(CC(=O)O)CC2)cc1C(C)C (stereo not shown) [Compound I-2, 2,2′,2″-(10-(2-((3-((3-((4-(3-((−2-carboxyadamantan-2-yl)carbamoyl)-5-(2,6-dimethoxyphenyl)-1H-pyrazol-1-yl)-3-isopropylphenyl)amino)propyl)(methyl)amino)propy)amino)-2-oxoethyl)-1,4,7,10-tetraazacyclododecane-1,4,7-triyl)triacetic acid]
		28.3	58.0	15.4	41.1	31.3			not compromise the binding affinity		COc1cccc(OC)c1-c1cc(C(=O)NC2(C(=O)O)C3CC4CC(C3)CC2C4)nn1-c1ccc(NCCOCCOCCNC(=O)CN2CCN(CC(=O)O)CCN(CC(=O)O)CCN(CC(=O)O)CC2)cc1C(C)C (stereo not shown) [Compound I-10, 2,2′,2″-(10-(2-((2-(2-(2-((4-(3-((2-carboxyadamantan-2-yl)carbamoyl)-5-(2,6-dimethoxyphenyl)-1H-pyrazol-1-yl)-3-isopropylphenyl)amino)ethoxy)ethoxy)ethyl)amino)-2-oxoethyl)-1,4,7,10-tetraazacyclododecane-1,4,7-triyl)triacetic acid]
		82.6	36.5	5.6	12.8	39.3	0.465	0.465		higher binding affinity	COc1cccc(OC)c1-c1cc(C(=O)NC2(C(=O)O)C3CC4CC(C3)CC2C4)nn1-c1ccc(N(C)CCCN(C)CCCN(C)C(=O)CN2CCN(CC(=O)O)CCN(CC(=O)O)CCN(CC(=O)O)CC2)cc1C(C)C (stereo not shown) [Compound I-1, 2,2′,2″-(10-(2-((3-((3-((4-(3-((2-carboxyadamantan-2-yl)carbamoyl)-5-(2,6-dimethoxyphenyl)-1H-pyrazol-1-yl)-3-isopropylphenyl)(methyl)amino)propyl)(methyl)amino)propyl)(methyl)amino)-2-oxoethyl)-1,4,7,10-tetraazacyclododecane-1,4,7-triyl)triacetic acid]
lower IC50	26.9	146.4	10.0	14.2	16.7	48.3					COc1cccc(OC)c1-c1cc(C(=O)NC2(C(=O)O)C3CC4CC(C3)CC2C4)nn1-c1ccc(NC(=O)CCCN(C)CCCN(C)C(=O)CN2CCN(CC(=O)O)CCN(CC(=O)O)CCN(CC(=O)O)CC2)cc1C(C)C (stereo not shown) [Compound I-5, 2,2′,2″-(10-(2-((3-((4-((4-(3-((2-carboxyadamantan-2-yl)carbamoyl)-5-(2,6-dimethoxyphenyl)-1H-pyrazol-1-yl)-3-isopropylphenyl)amino)-4-oxobutyl)(methy)amino)propyl)(methyl)amino)-2-oxoethyl)-1,4,7,10-tetraazacyclododecane-1,4,7-triyl)triacetic acid]
lower IC50	11.7	156.7	34.4	18.1	23.1	40.1					COc1cccc(OC)c1-c1cc(C(=O)NC2(C(=O)O)C3CC4CC(C3)CC2C4)nn1-c1ccc(OCCCN(C)CCCN(C)C(=O)CN2CCN(CC(=O)O)CCN(CC(=O)O)CCN(CC(=O)O)CC2)cc1C(C)C (stereo not shown) [Compound I-7, 2,2′,2″-(10-(2-((3-((3-(4-(3-((2-carboxyadamantan-2-yl)carbamoyl)-5-(2,6-dimethoxyphenyl)-1H-pyrazol-1-yl)-3 isopropylphenoxy)propyl)(methyl)amino)propyl)(methyl)amino)-2-oxoethyl)-1,4,7,10-tetraazacyclododecane-1,4,7-triyl)triacetic acid]
		22.0									COc1cccc(OC)c1-c1cc(C(=O)NC2(C(=O)O)C3CC4CC(C3)CC2C4)nn1-c1ccc(N(CCCN(C)C)C(C)=O)cc1C(C)C (stereo not shown) [Compound C-4, reference compound]
		519.8									COc1cccc(OC)c1-c1cc(C(=O)NC2(C(=O)O)C3CC4CC(C3)CC2C4)nn1-c1ccc(NCCCN(C)CCCNC(=O)COCCOCCNC(=O)CN2CCN(CC(=O)O)CCN(CC(=O)O)CCN(CC(=O)O)CC2)cc1C(C)C (stereo not shown) [Compound I-3, 2,2′,2″-(10-(19-((4-(3-((2-carboxyadamantan-2-yl)carbamoyl)-5-(2,6 dimethoxyphenyl)-1H-pyrazol-1-yl)-3-isopropylphenyl)amino)-16-methyl-2,11-dioxo-6,9-dioxa-3,12,16-triazanonadecyl)-1,4,7,10-tetraazacyclododecane-1,4,7-triyl)tracetic acid]
		243.5									COc1cccc(OC)c1-c1cc(C(=O)NC2(C(=O)O)C3CC4CC(C3)CC2C4)nn1-c1ccc(CCCCN(C)CCCN(C)C(=O)CN2CCN(CC(=O)O)CCN(CC(=O)O)CCN(CC(=O)O)CC2)cc1C(C)C (stereo not shown) [Compound I-9, 2,2′,2″-(10-(2-((3-((4-(4-(3-((2-carboxyadamantan-2-yl)carbamoyl)-5-(2,6-dimethoxyphenyl)-1H-pyrazol-1-yl)-3-isopropylphenyl)butyl)(methyl)amino)propyl)(methyl)amino)-2-oxoethyl)-1,4,7,10-tetraazacyclododecane-1,4,7-triyl)triacetic acid]
